From article PMC11432330, “Novel Drug-like HsrA Inhibitors Exhibit Potent Narrow-Spectrum Antimicrobial Activities against Helicobacter pylori” (International Journal of Molecular Sciences, 2024) come the findings set out here.

≈ marks a conversion by molar mass, not a printed value.

Series [1] relates to K. pneumoniae ATCC 700603. The series is described as follows: MIC/MBC according to EUCAST guidelines. The settings on record: Klebsiella pneumoniae, ATCC700603. In kind it is cell-based, Klebsiella pneumonia. As for the experimental part: The antimicrobial activities of the selected compounds against several Gram-negative and Gran-positive representative species of normal human microbiota were determined according to the EUCAST guidelines. Briefly, standardized inoculums (0.5 McFarland) were freshly prepared from overnight Mueller–Hinton agar plates of reference strains E. coli ATCC 25922, K. pneumonia ATCC 700603, E. faecalis ATCC 29212, S. aureus ATCC 29213, S. epidermidis ATCC 12228, and S. agalactiae ATCC 12386. Next, bacterial suspensions adjusted to 5 × 10^5 CFU/mL in Mueller–Hinton broth were exposed to a range of concentrations from 64 to 0.031 mg/L of the selected compounds. DMSO and conventional antibiotics LVX and AMP were included as controls. […] Experiments were performed twice in triplicate.

In a further series the test system is response regulator HsrA. The series is described as follows: EMSA: inhibition of in vitro DNA binding activity of HsrA to promoter PporGDAB. The format is biochemical, Helicobacter pylori. The settings on record: 6 μM HsrA, 120 ng PporGDAB, ligand 0.1-2 mM. The procedure: The DNA binding activities of recombinant HsrA and CosR were assessed in vitro by electrophoretic mobility shift assays (EMSAs). A 300-bp promoter region of the H. pylori 26695 operon porGDAB was used as the target sequence of HsrA in all EMSA experiments. Likewise, a 420-bp sequence of the C. jejuni sodB promoter (ATCC 33560) was used as the target DNA of CosR [90]. The oligonucleotides used for the synthesis of these promoter regions are described in Supplementary Table S4. Response regulators HsrA (6 μM) or CosR (700 nM) were mixed with 120 ng of their target promoters in a reaction buffer of 10 mM bis-Tris (pH 7.5), 40 mM KCl, 100 mg/L BSA, 1 mM DTT, and 5% glycerol. For the in vitro inhibition analyses, mixtures of target DNA and response regulator were exposed to 2, 1, 0.5, and 0.1 mM of each compound of interest, incubated at room temperature for 20 min, and then separated on a 6% non-denaturing electrophoresis. DMSO instead of inhibitors was included as a vehicle control, while an internal sequence of the Anabaena sp. pkn22 gene was used as the non-specific competitor in all assays. For DNA-protein binding visualization, gels were stained with the SYBR Safe DNA gel stain (Invitrogen) and analyzed with a Gel Doc 2000 Image Analyzer (Bio-Rad).
For orientation: Mobility shift assays separate free from complexed probe on a gel.

Another series has as its system H. pylori ATCC 700392. The series is described as follows: Checkerboard assay with first-line antibiotics. In kind it is cell-based, Helicobacter pylori. As for the experimental part: Potential synergisms between the selected HsrA inhibitors and first-line antibiotics were evaluated by using checkerboard assays, as previous described. Briefly, the antimicrobials to be tested were twofold serially diluted in BHI + FBS using independent sterile microtiter plates. Then, concentration gradients from two antimicrobials were aseptically mixed at equal volumes in a new microtiter plate, resulting in a matrix of 77 unique combinations of both compounds. Next, freshly prepared inoculum of H. pylori ATCC 700392 adjusted at 2 × 10^6 CFU/mL in BHI+ FBS were added to all wells, and plates were incubated for 72 h at 37 °C under microaerophilic conditions. […] The fractional inhibitory concentration index (FICI) for each antimicrobial combination was calculated as previously described. Values of FICI ≤ 0.5, 0.5 < FICI ≤ 1, 1 < FICI ≤ 4, and FICI > 4 were considered as indicative of synergistic, additive, neutral, or antagonist interactions, respectively.

Series [2] can be described thus: Cytotoxicity, PrestoBlue cell viability assay. The format is cell-based. Conditions: human; HeLa cells, 24 h exposure; read-out: CC50 (50% cytotoxic concentration). The procedure:
(§1) The in vitro toxicity of the selected HsrA inhibitors was determined on HeLa cells by the PrestoBlue^TM assay, as previously described. Briefly, cells were cultured at 37 °C with 5% CO2 in Dulbecco’s modified Eagle’s medium containing 10% fetal bovine serum, 1% L-GlutaMAX^TM solution (Thermo Fisher Scientific), and 1% penicillin/streptomycin. When 80% confluence was achieved, cells were detached, counted, seeded in 96-well microplates at a density of 10,000 cells per well, and allowed to adhere for 24 h. Next, the mammalian cells were exposed to selected compounds at a range of 0.125 to 128 mg/L. After 24 h of exposure, the cell viability was measured with the PrestoBlue^TM cell viability reagent (Thermo Fisher Scientific), according to the manufacturer’s instructions. Experiments were performed twice in triplicate. The 50% cytotoxic concentration (CC50) of each compound was calculated by regression analysis using Microsoft Excel. Therapeutic index (TI) values were calculated as the ratio of the CC50 to the higher MIC observed for each compound [111].

For the next series, the system named is HeLa cells. The series is described as follows: Cytotoxicity, PrestoBlue cell viability assay. In kind it is cell-based. The settings on record: HeLa cells, 8 mg/L, 24 h. The procedure:
as §1

The next series deals with H. pylori. Briefly: MIC across the four H. pylori strains tested (text summaries). The format is cell-based, Helicobacter pylori. The settings on record: Helicobacter pylori; four strains incl. CLR-, MTZ- and LVX-resistant; read-out: MIC against all H. pylori strains tested. The procedure: (§2) The antimicrobial activity of the HsrA inhibitors was evaluated by the determination of the minimal inhibitory concentration (MIC) against four different strains of H. pylori: ATCC 700392 (aka 26695), ATCC 43504 (MTZ-resistant reference strain), ATCC 700684 (CLR-resistant reference strain), and Donostia 2 (LVX-resistant clinical isolate). The MICs were determined by the broth microdilution method, as previously described. Briefly, H. pylori strains were grown in blood agar at 37 °C for 72 h under microaerobic conditions. Fresh inoculums adjusted at OD600 = 0.01 [~10^6 colony forming units (CFU) per mL] in BHI broth supplemented with 4% fetal bovine serum (BHI + FBS) were prepared and immediately exposed to final concentrations between 64 and 0.031 mg/L of each compound of interest. The compound solvent (DMSO) as well as conventional antibiotics (MTZ, CLR, LVX) were included as controls. […] Each experiment was performed twice in triplicate. The MIC and MBC values of the selected compounds against C. jejuni ATCC 33560 were determined by using the same method and culture conditions described for the H. pylori strains.

The subject of another series is C. jejuni ATCC 33560. The series is described as follows: MIC/MBC, broth microdilution. In kind it is cell-based. The settings on record: Campylobacter jejuni, ATCC33560, C. jejuni ATCC 33560. As for the experimental part:
as §2
For orientation: Broth dilution looks for growth in wells or tubes with falling amounts of substance.

Where [3] appears, read: in combination with CLR (clarithromycin).
[4] abbreviates: in combination with LVX (levofloxacin).
Where [5] appears, read: in combination with MTZ (metronidazole).

Usually MBC stands for the lowest tested concentration that kills the bacteria rather than only halting them. Read a low MBC as more potent killing. By MIC is commonly meant the least concentration at which growth counts as inhibited. For the compound `N#Cc1cnn(-c2ccc(C(F)(F)F)cc2[N+](=O)[O-])c1N` [Ligand I], in series [1], the minimal bactericidal concentration (MBC) is greater than 64 µg/mL and the MIC is greater than 64 µg/mL. For the same compound, in the series with response regulator HsrA, the “Inhibition of in vitro DNA binding activity of HsrA (EMSA)” value was “noticeably inhibited”. Besides, in the series with H. pylori ATCC 700392 (setting [3]), the FICI is reported as 2, the FICantibiotic turned out to be 1, the FICinhibitor is 1 and the Interaction result is on record as “Neutral (no interaction or neutral (FICI > 1 to ≤4))”. In the series on H. pylori ATCC 700392 (setting [4]), the FICI was 2, the FICantibiotic was determined as 1, the FICinhibitor was 1 and the Interaction result is “Neutral (no interaction or neutral (FICI > 1 to ≤4))”. For the same compound, in the series on H. pylori ATCC 700392 (setting [5]), the FICI was determined as 0.625, the FICantibiotic was 0.125, the FICinhibitor was 0.5 and the Interaction entry is on record as “Additive (additive (FICI > 0.5 to ≤1))”. The CC50 at 24 h in series [2] is 119 µg/mL (≈ 401 µM). In addition, the “Cytotoxicity at 8 mg/L” value with HeLa cells is reported as “completely safe”. In addition, the MIC in the series with H. pylori lay in the range of 0.031 to 4 µg/mL (≈ 0.104 to 13.5 µM). Besides, in the series on C. jejuni ATCC 33560, the MBC was determined as 32 µg/mL (≈ 108 µM) and it took 32 µg/mL (≈ 108 µM) to inhibit growth (MIC).
